Test results as given in paper PMC11926786, “Effect of Lipidation on the Structure, Oligomerization, and Aggregation of Glucagon-like Peptide 1” (Bioconjugate Chemistry, 2025).
“Also recorded” adds a separate entry of the source. Where two headings read alike, the source gives them in different places. One block for each compound: values may come before it. *1 amine or outer side, *2 acyl side, *3 side chain or, on linkers, in order; H or OH if unused. Where a SMILES comes first, the peptide text is derived from it. Side-chain parts run from the residue outwards. The star is where a group is joined. γGlu = O=C(O)[C@H](CCC(=O)[*:2])N[*:1]; Palmitoyl = CCCCCCCCCCCCCCCC(=O)*

Tests used:
[1] = set-up: method as in 2 sources, one per row (each row's own in cited_ref): ref Venanzi et al., 20 ||| ref 20 = [20]; PMID 32780784; doi:10.1039/D0SM01011A; Venanzi M.; Savioli M.; Cimino R.; Gatto E.; Palleschi A.; Ripani G.; Cicero D.; Placidi E.; Orvieto F.; Bianchi E. A Spectroscopic and Molecular Dynamics Study on the Aggregation Process of; conditions: semaglutide without C-terminal amidation, cited from earlier work
[2] = cited from earlier work
[3] = Aggregation behaviour and aggregate morphology of aged samples (TEM, far-UV CD); format: physicochemical; conditions: 25 mM phosphate
[4] = Far-UV CD of freshly dissolved samples, α-helical content from MRE222; format: physicochemical; conditions: 85 μM, 25 mM phosphate pH 7.5, room temperature, estimated from MRE222
[5] = Size-exclusion chromatography of oligomeric species; format: physicochemical; conditions: freshly prepared, 135 μM
Procedure: Analytical SEC was performed on an KTA FPLC system (GE Healthcare), using a Superdex 200 Increase 10/300 column (GE Healthcare). Samples were loaded using a 200 μL loop. Prior to loading, the samples were filtered through a 0.22 μm filter (Millex, PVDF Membrane) to avoid blocking the column by large aggregates. All samples were eluted at a flow rate of 0.75 mL min^–1 at room temperature, and UV absorbance detection at 280 nm through a 0.5 cm flow cell was used. A set of globular protein standards (GE Healthcare) was used to construct a calibration curve for the column, Figure S9.
Calibration curve for Superdex 200 Increase 10/300 column
Globular protein standards (GE Healthcare) were used for column calibration, (Fig. S9C). The gel phase
distribution parameter, Kav, of each protein standard was calculated as
where Ve is an elution volume of a protein standard, V0 is the void volume of the column (determined
used. The logarithm of the molecular weight of each protein standard was plotted against its Kav. A
linear regression of this plot was used to determine the molecular weight of any eluting species
For Stoke’s radius (RSt), a calibration plot of √−log(Kav) against
RSt and a linear regression was used.
Figure S9: Calibration of a Superdex 200 Increase 10/300 column. Calibrations on the molecular weight (A) and on the Stoke’s […]

[6] = Sedimentation velocity analytical ultracentrifugation of oligomeric species; format: physicochemical; conditions: freshly prepared samples, pH 7.5; determined by both AUC and SEC
Procedure: Sedimentation velocity experiments were performed using a Beckman Optima XL-I Analytical Ultracentrifuge equipped with an An-60 Ti rotor. Samples of 85 μM peptide concentration were freshly prepared before the measurement. After a 2 h temperature equilibration of samples in the centrifuge to 20 °C, the experiment was performed with centrifugation at 50,000 rpm. The interference sedimentation curves were collected as 150 scans (approximately 12 h run time) and fitted to a continuous c(s) distribution model implemented in the Sedfit program.[48],[52],[53] The sedimentation coefficient was corrected for the standard state of the water at 20 °C (s20,w). The molecular weight and relative amount of each detected species were calculated using the Sedfit program.

[7] = Isoelectric point by isoelectric focusing gel electrophoresis; format: physicochemical; conditions: printed in Figure 1D
Procedure: Figure 1D illustrates the solubility of each lipidated analogue and nonlipidated GLP-1-Am at different pH values. […] Isoelectric points (pI) of the analogues were determined using isoelectric focusing gel electrophoresis (Figure S1), and the determined values are given in Figure 1D in the column next to the solubility chart.

[8] = pH-dependent peptide solubility; format: physicochemical; conditions: from solid: ca. 0.5 mg lyophilized powder + 500 μL 25 mM phosphate, citrate or Tris; pH 2.5 to 8.5 in 0.5 steps; ca. 5 min, room temperature; 0.22 μm filtered; A280; soluble = concentrations above 50 μM, insoluble = not above 1 μM
Procedure: Figure 1D illustrates the solubility of each lipidated analogue and nonlipidated GLP-1-Am at different pH values. […] Isoelectric points (pI) of the analogues were determined using isoelectric focusing gel electrophoresis (Figure S1), and the determined values are given in Figure 1D in the column next to the solubility chart. […] It is interesting to note that these both form well-defined oligomeric states (see later sections), in which it is likely that the local chemical environment of the individual ionizable groups has changed. […] Although there have been attempts to rationalize the solubility and even develop solubility predictors for peptide/protein analogs containing non-natural amino acids and amino acid derivatives, the prediction of the solubility of lipidated analogues remains challenging due to its complexity.[43],[44]
The peptide solubility was tested in the individual buffers differing by 0.5 on the pH scale (i.e., pH 2.5, 3.0, 3.5, 4.0, ...). […] Subsequently, the concentration of the peptide was determined spectrophotometrically (Cary 60 UV–vis, Agilent Technologies) using the absorption at 280 nm and a theoretical extinction coefficient of 6990 M^–1 cm^–1 at 280 nm.

Compound: semaglutide: marketed lipidated GLP-1 analogue, stearic diacid (C18) lipidation at Lys20
- oligomeric state [1]: equilibrium of monomers and dimers
- aggregation on incubation ([1]; ref Venanzi et al., 20): aggregation was observed after several weeks of incubation
- half-life in vivo ([2]; in vivo): 170 h

Compound: CCCCCCCCCCCCCCCC(=O)N[C@@H](CCC(=O)NCCCC[C@H](NC(=O)[C@@H](N)Cc1c[nH]cn1)C(=O)N[C@@H](CCC(=O)O)C(=O)NCC(=O)N[C@H](C(=O)N[C@@H](Cc1ccccc1)C(=O)N[C@H](C(=O)N[C@@H](CO)C(=O)N[C@@H](CC(=O)O)C(=O)N[C@H](C(=O)N[C@@H](CO)C(=O)N[C@@H](CO)C(=O)N[C@@H](Cc1ccc(O)cc1)C(=O)N[C@@H](CC(C)C)C(=O)N[C@@H](CCC(=O)O)C(=O)NCC(=O)N[C@@H](CCC(N)=O)C(=O)N[C@@H](C)C(=O)N[C@@H](C)C(=O)N[C@@H](CCCNC(=N)N)C(=O)N[C@@H](CCC(=O)O)C(=O)N[C@@H](Cc1ccccc1)C(=O)N[C@H](C(=O)N[C@@H](C)C(=O)N[C@@H](Cc1c[nH]c2ccccc12)C(=O)N[C@@H](CCCNC(=N)N)C(=O)N[C@H](C(=O)N[C@@H](CCCNC(=N)N)C(=O)NCC(=O)N[C@@H](CCCNC(=N)N)C(=O)NCC(N)=O)C(C)C)[C@@H](C)CC)C(C)C)[C@@H](C)O)[C@@H](C)O)C(=O)O [GLP-1-Am (2, γ-Glu-palm)] (H-HK([γGlu-Palmitoyl])EGTFTSDVSSYLEGQAAREFIAWRVRGRG-NH2)
- aggregation at pH 3 [3]: rapidly aggregate forming short fibril-like species with high β-sheet content; also recorded: analogue not soluble; (at pH 3, there is rapid formation of β-structure-rich fibrils)

Compound: GLP-1
- half-life in vivo ([2]; in vivo): circa 2 min

Compound: liraglutide: marketed lipidated GLP-1 analogue, palmitic acid (C16) linked to Lys20 via a γ-glutamic acid spacer
- half-life in vivo ([2]; pharmacokinetic data): 9 to 13 h

- α-helix content [4]: 21%
- SEC peak elution volume(s) ([5]; 25 mM phosphate pH 7.5, Superdex 200 Increase 10/300, 0.75 mL min–1, room temperature, A280): 19.2 mL
- SEC n-mer ([5]; 25 mM phosphate pH 7.5, Superdex 200 Increase 10/300, calculated from calibration with globular protein standards): 1–2
- isoelectric point (pI) [7]: 7.4
Compound: CC[C@H](C)[C@H](NC(=O)[C@H](Cc1ccccc1)NC(=O)[C@H](CCC(=O)O)NC(=O)[C@H](CCCCN)NC(=O)[C@H](C)NC(=O)[C@H](C)NC(=O)[C@H](CCC(N)=O)NC(=O)CNC(=O)[C@H](CCC(=O)O)NC(=O)[C@H](CC(C)C)NC(=O)[C@H](Cc1ccc(O)cc1)NC(=O)[C@H](CO)NC(=O)[C@H](CO)NC(=O)[C@@H](NC(=O)[C@H](CC(=O)O)NC(=O)[C@H](CO)NC(=O)[C@@H](NC(=O)[C@H](Cc1ccccc1)NC(=O)[C@@H](NC(=O)CNC(=O)[C@H](CCC(=O)O)NC(=O)[C@H](C)NC(=O)[C@@H](N)Cc1cnc[nH]1)[C@@H](C)O)[C@@H](C)O)C(C)C)C(=O)N[C@@H](C)C(=O)N[C@@H](Cc1c[nH]c2ccccc12)C(=O)N[C@@H](CC(C)C)C(=O)N[C@H](C(=O)N[C@@H](CCCCN)C(=O)NCC(=O)N[C@@H](CCCNC(=N)N)C(=O)NCC(N)=O)C(C)C [GLP-1-Am]
- oligomerization [6]: dimer and hexamer, less stable, detectable only by AUC, α-helical
- pH range of solubility [8]: soluble at all pH values tested; also recorded: soluble over the entire range studied
